The subject of series [1] is dopamine transporter protein over the norepinephrine transporter protein. The note with it: selectivity for dopamine transporter protein over norepinephrine transporter protein; cited from earlier work.

Molecules are shown by their SMILES. Where a name gives a salt, the structure may show the parent alone.

Here are results for 16 molecules from patent publication US7163949B1, “4-phenyl substituted tetrahydroisoquinolines and use thereof” (AMR Technology, Inc., priority 1999, dated 2007).

In the case of `CN1Cc2cc(C(F)(F)F)ccc2C(c2ccccc2)C1` (stereo not shown), the melting point was 257 to 275 °C.

Consider `Cc1ccc2c(c1)C(C)N(C)CC2c1ccccc1` (stereo not shown), for which the melting point is 87 to 89 °C.

On to `FCc1ccc2c(c1CF)CN(CF)CC2c1ccccc1` (stereo not shown), for which the melting point fell in the range of 108 to 113 °C.

Regarding `Cc1c(F)ccc2c1CN(C)CC2c1ccccc1` (stereo not shown), the melting point lay in the range of 185 to 186 °C.

With `COc1c(C)ccc2c1CN(C)CC2c1ccccc1` (stereo not shown), the melting point was in the range of 130 to 131 °C.

Consider `Cc1ccc2c(c1O)CN(C)CC2c1ccccc1` (stereo not shown), for which the melting point lay within 260 to 261 °C.

As to `CN1Cc2cc(OC(F)(F)F)ccc2C(c2ccccc2)C1` (stereo not shown), the melting point is 150 to 151 °C (dec.).

For the molecule `CN1Cc2cc(Oc3ccccc3)ccc2C(c2ccccc2)C1` (stereo not shown), the melting point is 175 to 176 °C (dec.).

`CN1Cc2cc(OCc3ccccc3)ccc2C(c2ccccc2)C1` (stereo not shown) came in with a melting point of 155 to 156 °C.

For the molecule `Cc1ccc2c(c1)CN(C)CC2c1ccc(F)c(C)c1` (stereo not shown), the melting point was in the range of 174 to 175 °C.

Take `CN1Cc2c(CO)cccc2C(c2ccccc2)C1` (stereo not shown): the melting point was in the range of 144 to 146 °C.

As to `Cc1cc(F)c2c(c1)C(C)N(C)C(F)C2c1ccccc1` (stereo not shown) (as salt: HCl), the melting point is 194 to 197 °C (dec.).

Turning to `CNCc1ccc2c(c1F)CN(C)CC2c1ccccc1` (stereo not shown) (as salt: HCl), the melting point lay within 185 to 205 °C.

For the molecule `CN1Cc2cc(CO)ccc2C(c2ccccc2)C1` (stereo not shown) (as salt: HCl), the melting point is 237 to 240 °C (dec.).

`Cc1ccc2c(c1F)CN(C)CC2c1ccccc1` (stereo not shown) (as salt: hydrochloride) had a melting point of 215 to 216 °C.

As to `COC(=O)C(c1ccccc1)C1CCCCN1` (stereo not shown) [Methylphenidate], in series [1], the “DAT/NET Ki ratio” value is recorded as 0.1.
